Laboratory results as given in paper PMC3334764, “Effect of fluid loading during hypovolaemic shock on caspofungin pharmacokinetic parameters in pig” (Critical Care, 2011).
Where two headings read alike, the source gives them in different places. Marks after values point to notes of the source that are not given here.

Assays:
[1] = Caspofungin plasma pharmacokinetics in anaesthetised, ventilated pigs (shock vs control); assay type: in vivo; conditions: pig, 70 mg one-hour iv infusion; for level at 4 h / AUC(0-t): iv, 70 mg; for level at 4 h: four hours after start of infusion, read-out: Cp (caspofungin plasma concentration at four hours); for AUC(0-t): unit as printed in abstract, read-out: area under curve (AUC) from zero to four hours
Experimental: (§1) In the shock group (n = 12), the animals were bled through the carotid catheter (Figure 1). Blood withdrawal was started at a rate of 0.8 to 1 mL/kg/minute and continued until all three of the following end points were achieved: MAP of 40 to 45 mmHg, decrease in CI greater than 40% and SVO2 lower than 30%. End points were maintained for a period of 120 minutes by means of further bleeding. During the four-hour resuscitation period, the animals received isotonic saline at a rate of 2 mL/kg/minute. The infusions were stopped when the CI reached 90% of the baseline value and SVO2 was above 50%, and the infusions were then adjusted to keep these parameters constant until the animals were killed. At the beginning of the resuscitation period, the animals received a one-hour intravenous infusion of 70 mg of caspofungin acetate (Cancidas; Merck Sharp & Dohme-Chibret, Paris, France) diluted in 50 mL of saline, which was injected into the right atrium through the proximal lumen of the pulmonary arterial catheter via a pump-driven syringe. A second group of animals (n = 16) used as controls was anaesthetised and ventilated, but they were not subjected to bleeding and fluid loading. These animals were also killed four hours after the start of the caspofungin infusion.
(§2) EDTA-blood samples were drawn through a dedicated arterial catheter just before and 15, 30, 60 and 90 minutes and 2 hours, 3 hours and 4 hours after the caspofungin infusions were started in both groups. Then the animals were immediately killed, and lung tissue samples (2 cm × 2 cm × 2 cm) were surgically removed from nondependent parts of both the lower and upper lobes after sternotomy. Plasma was obtained by blood centrifugation at 1,500 g for 15 minutes. Plasma and lung samples were immediately stored at -80°C. The remaining lung tissues were used for the determination of extravascular lung water indexed to body weight (EVLWI) by using a gravimetric method as previously described. Caspofungin acetate was kindly provided by Merck Sharp & Dohme-Chibret. Plasma and lung caspofungin concentrations were determined by using a validated high-performance liquid chromatography method with fluorescence detection after a solid-phase extraction (Bond Elut™ column; Agilent Technologies, Santa Clara, CA, USA). Caspofungin and the internal standard (IS) propranolol were separated on a LiChrospher column (100 RP-8e (5 μm); Merck Chemicals KGaA, Darmstadt, Germany) using a mobile phase consisting of acetonitrile and 0.1% trifluoroacetic acid buffer (200:300 vol/vol) at a flow rate of 1 mL/minute. The retention times were 6 and 22 minutes for IS and caspofungin, respectively. The linearity range was 0.3 to 7.5 mg/L (r^2 > 0.998). The lower limit of quantification, defined as the lowest concentration that could be determined with a relative error and precision (relative standard deviation) less than 20%, was 0.3 μg/mL. Intraday and interday levels of interassay precision were 1.91% and 4.84% (0.5 μg/mL), 6.94% and 10.4% (3 μg/mL) and 7.84% and 12% (5 μg/mL) for serum samples. The maximal concentration (Cmax) was measured at the end of the infusion.
(§3) The AUC from zero to four hours (AUC0→4 hours) was determined using the trapezoidal rule. The concentration vs time data for both groups were modelled using the population approach method implemented in Monolix version 3.1 release 2 software. A two-compartment mammillary model was developed and parameterised in terms of central volume of distribution of caspofungin (V1) and elimination clearance of caspofungin (CL), peripheral volume of distribution of caspofungin (V2) and intercompartmental clearance of caspofungin (Q). The total apparent volume of distribution of caspofungin (Vd) was calculated as V1 + V2. The interindividual variability (ω) for each parameter and the residual variability of the model (σ) were estimated.

[2] = Lung tissue caspofungin concentration and tissue-to-plasma ratio in pigs; assay type: in vivo; conditions: pig
Experimental: as §1
as §2, with “Intraday and interday levels of interassay precision were 1.91% and 4.84% (0.5 μg/mL), 6.94% and 10.4% (3 μg/mL) and 7.84% and 12% (5 μg/mL) for serum samples.” left out
Lung samples were weighed (200 ± 150 mg), homogenised with a 1.5-mL saline solution, ground for 15 minutes and centrifuged twice at 10,000 rpm for 10 minutes. […] Lung caspofungin concentrations (Ct) were determined four hours after starting the caspofungin infusion and are expressed as micrograms per gram of lung tissue. The tissue-to-plasma ratio for each group was calculated as R = (Ct/Cp) × 100, where Cp is the caspofungin plasma concentration at four hours.

[3] = Two-compartment population pharmacokinetic analysis (Monolix) of plasma caspofungin in pigs; assay type: in vivo; conditions: pig; for Q (intercompartmental clearance) / V1 (central volume of distribution) / V2 (peripheral volume of distribution) / clearance: two-compartment population estimate; for clearance: 70 mg one-hour iv infusion, read-out: CL (central elimination clearance) (converted)
Experimental: as §3

[4] = healthy humans, single dose of 70 mg, cited from earlier work
Experimental: In the early clinical development program for caspofungin, a target concentration of 1 μg/mL was used as a guide for concentrations likely to be efficacious. This target was determined on the basis of in vitro susceptibility test results and was selected as the concentration that exceeded the minimal inhibitory concentration at which 90% of Candida spp. isolates were inhibited.

[5] = surgical ICU patients; 24-hour trough plasma concentration; cited from earlier work
Source text: The pharmacokinetics of caspofungin have been recently studied in a cohort of surgical ICU patients. […] Therefore, the authors concluded that a dose adjustment may be necessary in some ICU patients, based on the monitoring of plasma conc ...

SMILES: CC[C@H](C)C[C@H](C)CCCCCCCCC(=O)N[C@H]1C[C@@H](O)[C@@H](NCCN)NC(=O)[C@@H]2[C@@H](O)CCN2C(=O)[C@H]([C@H](O)CCN)NC(=O)[C@H]([C@H](O)[C@@H](O)c2ccc(O)cc2)NC(=O)[C@@H]2C[C@@H](O)CN2C(=O)[C@H]([C@@H](C)O)NC1=O [caspofungin, caspofungin acetate]
- Cmax (maximum caspofungin plasma concentration) ([1]; control group (n = 16), no haemorrhage, measured at end of infusion, HPLC with fluorescence detection, median): 33100 ng/mL
- level at 4 h ([1]; plasma, control group (n = 16), median): 20700 ng/mL
- AUC(0-t) ([1]; plasma, control group, median): 80800 ng·h/mL
- level at 4 h ([1]; plasma, shock group (n = 12), median): 16100 ng/mL
- AUC(0-t) ([1]; plasma, shock group, median): 60300 ng·h/mL
- median AUC0→4 hours lower in the shock group than in the control group ([1]; shock vs control group): 25%
- median maximal plasma concentration lower in the shock group than in the control group ([1]; shock vs control group): 35%
- Cmax ([1]; plasma, shock group (n = 12), hypovolaemic shock then saline fluid loading, measured at end of infusion, HPLC with fluorescence detection, median, read-out: Cmax (maximum caspofungin plasma concentration)): 21600 ng/mL
- Ct (lung caspofungin concentration at four hours) ([2]; control group (n = 16), 70 mg one-hour iv infusion, lung homogenate, four sampled lobes averaged, HPLC with fluorescence detection, median): 1.64 µg/g
- Ratio = (Ct/Cp) × 100 (lung tissue-to-plasma ratio) ([2]; control group (n = 16), four hours after start of infusion, median): 7.28%
- tissue level at time at 4 h ([2]; shock group (n = 12), 70 mg one-hour iv infusion, lung homogenate, four sampled lobes averaged, HPLC with fluorescence detection, median, read-out: Ct (lung caspofungin concentration at four hours)): 1220 ng/g
- Ratio = (Ct/Cp) × 100 (lung tissue-to-plasma ratio) ([2]; shock group (n = 12), four hours after start of infusion, median): 7.76%
- median lung caspofungin concentration lower in the shock group than in the control group ([2]; shock vs control group, four hours after start of infusion): 25%
- Q (intercompartmental clearance) ([3]; control group (n = 16)): 4.23 L/h
- V1 (central volume of distribution) ([3]; control group (n = 16)): 0.98 L
- V2 (peripheral volume of distribution) ([3]; control group (n = 16)): 1.43 L
- clearance ([3]; plasma, iv, 70 mg, control group (n = 16)): 4.83 mL/min
- clearance ([3]; plasma, iv, 70 mg, shock group (n = 12)): 3.5 mL/min
- Q (intercompartmental clearance) ([3]; shock group (n = 12)): 8.16* L/hour
- V1 (central volume of distribution) ([3]; shock group (n = 12)): 0.96 L
- V2 (peripheral volume of distribution) ([3]; shock group (n = 12)): 2.8* L
- Vd ([3]; plasma, iv, 70 mg, shock group (n = 12), calculated as V1 + V2, read-out: Vd (total apparent volume of distribution)): 3.9 L
- concentration at 24 hours (trough concentration) ([4]; mean (95% confidence interval, 1.18 to 1.71)): 1420 ng/mL
- mean plasma Cmax ([4]; mean (95% confidence interval, 10.87 to 13.33)): 12040 ng/mL
- patients in whom the trough concentration at day 2 of treatment exceeded 1.0 μg/mL [5]: 75%
